From patent publication EP0322748B1, “Antibiotic NK86-0279, process for production of the same and application of the same” (NIPPON KAYAKU KABUSHIKI KAISHA, priority 1987, dated 1989)
In brackets after ≈: the same amount, converted by molar mass.

Key:
[1] = test system: mouse pulmonary cancer cells (LL); assay: growth-inhibitory effect on mouse pulmonary cancer cells, dye exclusion method; type: cell-based; settings: 72 h
Experimental: (§1) The growth-inhibitory effects of the compound of the present invention on mouse pulmonary cancer cells (LL) and human plumonary cancer cells (PC-3) were examined.
(§2) A 96-well plate was inoculated with mouse pulmonary cancer cells at a ratio of 8.0 x 10² cells per well, while another 96-well plate was inoculated with human pulmonary cancer cells at a ratio of 2.5 x 10³ per well. These cells were incubated in an incubator at 37°C under 5 % CO₂ for 24 hours. Then the compound of the present invention was added thereto at various concentrations. Cells in each well were counted by the dye exclusion method three days after the addition to thereby evaluate the growth-inhibitory effect of the test compound on the mouse pulmonary cancer cells (LL) and that on the human pulmonary cancer cells (PC-3).

[2] = test system: human pulmonary cancer cells (PC-3); assay: growth-inhibitory effect on human pulmonary cancer cells, dye exclusion method; type: cell-based; settings: 72 h
Experimental: as §1, §2

[3] = test system: human melanoma cells (A375); assay: growth-inhibitory effect on human melanoma cells, dye exclusion method; type: cell-based
Experimental: The growth-inhibitory effects of the compound of the present invention on mouse melanoma cells (B16) and human melanoma cells (A375) were examined. A 96-well plate was inoculated with mouse melanoma cells at a ratio of 1.5 x 10³ cells per well, while another 96-well plate was inoculated with human melanoma cells at a ratio of 1.0 x 10³ per well. These cells were incubated in an incubator at 37°C under 5 % CO₂. Then the compound of the present invention was added thereto at various concentrations. Cells in each well were counted by the dye exclusion method 65 hours after the addition to thereby evaluate the growth-inhibitory effect of the test compound on the mouse melanoma cells and that on the human melanoma cells.

[4] = test system: mouse malignant melanoma (B16 melanotic melanoma); assay: in-vivo test by intraperitoneal administration against mouse malignant melanoma, tumor volume; parameters: species or system BDF₁ mouse; settings: 11 days after inoculation
From the text: The anti-cancer action of the compound of the present invention against mouse malignant melanoma (B16 melanotic melanoma) was examined. 4 x 10⁵ mouse malignant melanoma cells were inoculated into a subcutaneous portion of the right body side of a 8 week-old male BDF₁ mouse, and the compound of the present invention was intraperitoneally administered to the mouse in various concentrations every day from the next day of the inoculation once a day for 10 days. On the 11 days after the inoculation the minor axis and the major axis of the tumor were measured, and the volume of the tumor was determined by using the following equation: (minor axis)² x […] [formula] . Then, the percentage inhibition of proliferation of each tumor with respect to the compound of the present invention was determined from the ratio of the volume of the tumor on the groups of administration of the compound of the present invention relative to that on the control group.

[5] = test system: mouse malignant melanoma (B16 melanotic melanoma); assay: in-vivo test by intravenous administration against mouse malignant melanoma, tumor volume; parameters: species or system C57BL/6 mouse
From the text: (§3) The anti-cancer action of the compound of the present invention against mouse malignant melanoma (B16 melanotic melanoma) was examined. 5 x 10⁵ mouse malignant melanoma cells were inoculated into a subcutaneous portion of the right body side of a 6 week-old male C57BL/6 mouse, and the compound of the present invention was intravenously administered to the mouse in various concentrations every day from the next day or from 7 days after the inoculation once a day for 5 days. On the 11 days after the inoculation, the minor axis and the major axis of the tumor were measured, and the volume of the tumor was determined by using the following equation: (minor axis)² x […]/2 [formula] . Then, the percentage inhibition of proliferation of each tumor with respect to the compound of the present invention was determined from the ratio of the volume of the tumor on the groups of administration of the compound of the present invention relative to that on the control group.

[6] = test system: mouse malignant melanoma (B16 melanotic melanoma); assay: in-vivo test by peroral administration against mouse malignant melanoma, tumor volume; parameters: species or system C57BL/6 mouse
From the text: as §3, with “perorally” for “intravenously”

CCC1C=CC=CCC(C)C(O)C(C)(O)C(=O)C(C)C(O)C(C)C(=O)C(C)C(O)C(C)C=CC(=O)OC2C(C)C(CC1)OC1(OC(CC(C)O)C(C)CC1=O)C2CC (stereo not drawn) [NK86-0279]
IC50 ([1]; mouse pulmonary cancer cells (LL), three days after the addition, read-out: IC₅₀): 0.0098 µg/mL (≈ 0.012 µM)
inhibition at 0.024 µg/mL ([1]; Mus musculus, LL, 0.024 µg/ml, read-out: Growth-inhibitory ratio): 30.4%
inhibition at 0.061 µg/mL ([1]; Mus musculus, LL, 0.061 µg/ml, read-out: Growth-inhibitory ratio): -5.7%
inhibition at 0.098 µg/mL ([1]; Mus musculus, LL, 0.098 µg/ml, read-out: Growth-inhibitory ratio): 50%
inhibition at 0.39 µg/mL ([1]; Mus musculus, LL, 0.39 µg/ml, read-out: Growth-inhibitory ratio): 61%
inhibition at 1.56 µg/mL ([1]; Mus musculus, LL, 1.56 µg/ml, read-out: Growth-inhibitory ratio): 92.1%
inhibition at 6.25 µg/mL ([1]; Mus musculus, LL, 6.25 µg/ml, read-out: Growth-inhibitory ratio): 114%
inhibition at 25 µg/mL ([1]; Mus musculus, LL, 25 µg/ml, read-out: Growth-inhibitory ratio): 110%
inhibition at 100 µg/mL ([1]; Mus musculus, LL, 100 µg/ml, read-out: Growth-inhibitory ratio): 109%
IC50 ([2]; human pulmonary cancer cells (PC-3), three days after the addition, read-out: IC₅₀): 2.13 µg/mL (≈ 2.6 µM)
inhibition at 0.024 µg/mL ([2]; Homo sapiens, PC-3, 0.024 µg/ml, read-out: Growth-inhibitory ratio): 25.1%
inhibition at 0.061 µg/mL ([2]; Homo sapiens, PC-3, 0.061 µg/ml, read-out: Growth-inhibitory ratio): 12%
inhibition at 0.098 µg/mL ([2]; Homo sapiens, PC-3, 0.098 µg/ml, read-out: Growth-inhibitory ratio): 28.1%
inhibition at 0.39 µg/mL ([2]; Homo sapiens, PC-3, 0.39 µg/ml, read-out: Growth-inhibitory ratio): 28%
inhibition at 1.56 µg/mL ([2]; Homo sapiens, PC-3, 1.56 µg/ml, read-out: Growth-inhibitory ratio): 38.1%
inhibition at 6.25 µg/mL ([2]; Homo sapiens, PC-3, 6.25 µg/ml, read-out: Growth-inhibitory ratio): 85.9%
inhibition at 25 µg/mL ([2]; Homo sapiens, PC-3, 25 µg/ml, read-out: Growth-inhibitory ratio): 99.3%
inhibition at 100 µg/mL ([2]; Homo sapiens, PC-3, 100 µg/ml, read-out: Growth-inhibitory ratio): 97.2%
IC50 ([3]; A-375, human melanoma cells (A375), 65 hours after the addition, read-out: IC₅₀): 1.87 µg/mL (≈ 2.28 µM)
inhibition at 0.0061 µg/mL ([3]; Homo sapiens, A-375, 65 h, A375, 0.0061 µg/ml, read-out: Growth-inhibitory ratio): 19.7%
inhibition at 0.024 µg/mL ([3]; Homo sapiens, A-375, 65 h, A375, 0.024 µg/ml, read-out: Growth-inhibitory ratio): 39.7%
inhibition at 0.098 µg/mL ([3]; Homo sapiens, A-375, 65 h, A375, 0.098 µg/ml, read-out: Growth-inhibitory ratio): 49.4%
inhibition at 0.39 µg/mL ([3]; Homo sapiens, A-375, 65 h, A375, 0.39 µg/ml, read-out: Growth-inhibitory ratio): 43.7%
inhibition at 1.56 µg/mL ([3]; Homo sapiens, A-375, 65 h, A375, 1.56 µg/ml, read-out: Growth-inhibitory ratio): 44.4%
inhibition at 6.25 µg/mL ([3]; Homo sapiens, A-375, 65 h, A375, 6.25 µg/ml, read-out: Growth-inhibitory ratio): 83.6%
inhibition at 25 µg/mL ([3]; Homo sapiens, A-375, 65 h, A375, 25 µg/ml, read-out: Growth-inhibitory ratio): 105%
inhibition at 100 µg/mL ([3]; Homo sapiens, A-375, 65 h, A375, 100 µg/ml, read-out: Growth-inhibitory ratio): 105%
Growth-inhibitory ratio (tumor volume) ([4]; 0.012 mg/kg intraperitoneally once a day for 10 days): 50.7%
Growth-inhibitory ratio (tumor volume) ([4]; 0.021 mg/kg intraperitoneally once a day for 10 days): 19.3%
Growth-inhibitory ratio (tumor volume) ([4]; 0.037 mg/kg intraperitoneally once a day for 10 days): 41.4%
Growth-inhibitory ratio (tumor volume) ([4]; 0.064 mg/kg intraperitoneally once a day for 10 days): 40.5%
Growth-inhibitory ratio (tumor volume) ([4]; 0.111 mg/kg intraperitoneally once a day for 10 days): 38.4%
Growth-inhibitory ratio (tumor volume) ([4]; 0.192 mg/kg intraperitoneally once a day for 10 days): 54.7%
Growth-inhibitory ratio (tumor volume) ([4]; 0.333 mg/kg intraperitoneally once a day for 10 days): 53.2%
Growth-inhibitory ratio (tumor volume) ([4]; 0.577 mg/kg intraperitoneally once a day for 10 days): 60.4%
Growth-inhibitory ratio (tumor volume) ([4]; 1.000 mg/kg intraperitoneally once a day for 10 days): 80%
Growth-inhibitory ratio (tumor volume) ([5]; 0.05 mg/kg intravenously once a day for 5 days, administered from 7 days after the inoculation): 57.4%
Growth-inhibitory ratio (tumor volume) ([5]; 0.05 mg/kg intravenously once a day for 5 days, administered from the next day of the inoculation): 57.0%
Growth-inhibitory ratio (tumor volume) ([5]; 0.10 mg/kg intravenously once a day for 5 days, administered from 7 days after the inoculation): 69.1%
Growth-inhibitory ratio (tumor volume) ([5]; 0.10 mg/kg intravenously once a day for 5 days, administered from the next day of the inoculation): 62.9%
Growth-inhibitory ratio (tumor volume) ([5]; 0.20 mg/kg intravenously once a day for 5 days, administered from 7 days after the inoculation): 76.6%
Growth-inhibitory ratio (tumor volume) ([5]; 0.20 mg/kg intravenously once a day for 5 days, administered from the next day of the inoculation): 56.9%
Growth-inhibitory ratio (tumor volume) ([5]; 0.40 mg/kg intravenously once a day for 5 days, administered from 7 days after the inoculation): 81.9%
Growth-inhibitory ratio (tumor volume) ([5]; 0.40 mg/kg intravenously once a day for 5 days, administered from the next day of the inoculation): 50.5%
Growth-inhibitory ratio (tumor volume) ([6]; 0.5 mg/kg perorally once a day for 5 days, administered from 7 days after the inoculation): 44.7%
Growth-inhibitory ratio (tumor volume) ([6]; 0.5 mg/kg perorally once a day for 5 days, administered from the next day of the inoculation): 90.5%
Growth-inhibitory ratio (tumor volume) ([6]; 1.0 mg/kg perorally once a day for 5 days, administered from 7 days after the inoculation): 72.3%
Growth-inhibitory ratio (tumor volume) ([6]; 1.0 mg/kg perorally once a day for 5 days, administered from the next day of the inoculation): 94.6%
Growth-inhibitory ratio (tumor volume) ([6]; 2.0 mg/kg perorally once a day for 5 days, administered from 7 days after the inoculation): 57.4%
Growth-inhibitory ratio (tumor volume) ([6]; 2.0 mg/kg perorally once a day for 5 days, administered from the next day of the inoculation): 69.5%
Growth-inhibitory ratio (tumor volume) ([6]; 4.0 mg/kg perorally once a day for 5 days, administered from 7 days after the inoculation): 75.5%
Growth-inhibitory ratio (tumor volume) ([6]; 4.0 mg/kg perorally once a day for 5 days, administered from the next day of the inoculation): 64.5%
Growth-inhibitory ratio (tumor volume) ([6]; 8.0 mg/kg perorally once a day for 5 days, administered from 7 days after the inoculation): 67.0%
Growth-inhibitory ratio (tumor volume) ([6]; 8.0 mg/kg perorally once a day for 5 days, administered from the next day of the inoculation): 66.0%
